The test system of assay [1] is C. clostridioforme. The assay is described as follows: Activity spectrum at 200 μM, C. clostridioforme. It counts as cell-based, Clostridium clostridioforme. The protocol: (§1) SM activity spectrum: The 128 selected SMs were tested for antimicrobial effects on nine different serotypes frequently implicated in foodborne gastroenteritis outbreaks. Later in the study, the four best SMs were tested against twelve beneficial/commensal gut bacteria. Both screens were performed at 200 μM as described in the primary screening. Growth conditions for each strain are described in Table 1.

For assay [2], the system named is C. jejuni 81-176. The assay is described as follows: Activity on avian pathogens at 200 μM, C. jejuni. It counts as cell-based, Campylobacter jejuni. The procedure: (§2) FIGS. 1(A-E). Selection of potent Salmonella growth inhibitors. FIG. 1A: High-throughput screening of 4182 SMs against S. typhimurium WT at 200 μM. Negative value: growth inhibition; Positive value: growth stimulation compared to S. typhimurium growth not treated. The black line represents growth inhibition caused by 2% DMSO. FIG. 1B: Activity of 19 S. typhimurium growth inhibitors against additional Salmonella serotypes. Light grey cells: total growth inhibition; dark grey cells: bacterial growth observed; black cells: not determined. FIG. 1C: Dose-response assays of the selected 19 SMs against S. typhimurium WT. […] The black line represents a cut off of nine serotypes killed per SM. FIG. 1E: Activity spectra of the selected four SMs at 200 μM each on several avian-pathogens (Campylobacter jejuni, Escherichia coli APEC, and Mycoplasma gallisepticum) and beneficial gut bacteria (remaining species). E. coli APEC refers to Avian Pathogenic E. coli and includes E. coli O1, O2, O8, O15, O18, O35, O78, O109, and O115. Light grey cells: cidal effect; dark grey cells: bacterial growth observed. Left side: phylogenetic tree based on NCBI taxonomic ID built with PhyloT software.
(§3) The selected four SMs were tested on twelve beneficial-commensal gut bacteria at 200 μM (FIG. 1E). […] These four SMs were also growth inhibitors of other avian pathogens at 200 μM (unpublished data, FIG. 1E). […]

Assay [3] concerns S. typhimurium WT internalized in HD11 cells. The assay is described as follows: S. typhimurium intracellular survival in infected HD11 cells. Format: cell-based. The note with it: Salmonella enterica. The protocol:
(§4) Effect of the four SMs on S. typhimurium intracellular survival in cells lines: The ability of four SMs to clear S. typhimurium WT […] was evaluated using three cell lines (Caco-2 cells, HD11, and THP-1 cells). The Salmonella intracellular survival as assessed as described (13). A multiplicity of infection “MOI” of 10 was used. Infected cells were treated with 1 μl of SMs (final concentration ranged between 100 μM and 6.25 μM) at 37° C. for 24 hrs in humidified, 5% CO2 incubator. Following incubation, cells were washed once with 150 μl of 1×PBS, lysed with 0.1% Triton-100X, serial ten-fold diluted in 1×PBS, and plated on agar plate. Plates were incubated at 37° C. for 24 hrs to determine the intracellular survival. Cells not infected and not treated, and cells infected and treated with 2% DMSO were used as controls.

For assay [4], the system named is twelve beneficial-commensal gut bacteria. The assay is described as follows: Activity spectrum on twelve beneficial-commensal gut bacteria at 200 μM. Format: cell-based. The protocol: as §1
For assay [5], the system named is Avian Pathogenic E. coli (O1, O2, O8, O15, O18, O35, O78, O109, and O115). The assay is described as follows: Activity on avian pathogens at 200 μM, Avian Pathogenic E. coli. It counts as cell-based, Escherichia coli. The procedure: as §2, §3
In assay [6] the test system is internalized Salmonella in Caco-2, HD11 and THP-1 cells. The assay is described as follows: S. typhimurium clearance in infected cell lines, summary over the three cell lines. The note with it: over the three cell lines (Caco-2, HD11, THP-1). It counts as cell-based. The protocol: as §4
For assay [7], the system named is biofilm-protected S. typhimurium WT. Nature of the assay: MBEC-HTP assay on biofilm-protected S. typhimurium. Format: cell-based, Salmonella enterica subsp. enterica serovar Typhimurium LT2. The note with it: 18 hrs incubation, 0.2×MBC to 4×MBC. The procedure: Antimicrobial susceptibility testing on biofilm-protected S. typhimurium using the MBEC™-HTP assay: The antimicrobial efficacy of the four SMs was tested once the S. Typhimurium WT was protected by the […] biofilm matrix. The experiment was performed as described by the manufacturer (innovotech.ca/MBEC_HTPInstructions_Rev1.pdf). Briefly, 150 μl of an overnight suspension of S. typhimurium WT normalized at 0.05 OD600 in LB medium was transferred into each well of a sterile, non-treated, flat bottom 96-wells plate. The plate was covered using the lid containing the pegs (innovotech; 19111), sealed with parafilm, and incubated for 36 hrs at 37° C. […] The plate was incubated for 18 hrs at 37° C., 110 rpm in the dark. After incubation, the lid was transferred into a new 96-wells plate containing 200 μl of sterile water and sonicated for 60 min at room temperature (Aquasonic model 50HT, VWR). Then the supernatant was ten-fold serial diluted, plated in agar plate, and incubated at 37° C. for 36 hrs. The lowest SM concentration giving a complete clearance was considered as the minimum biofilm eradication concentration (MBEC).

Assay [8] concerns B. thetaiolaomicron. Nature of the assay: Activity spectrum at 200 μM, B. thetaiotaomicron. It counts as cell-based. The procedure:
as §1

Assay [9] has as its system B. adolescentis. Nature of the assay: Activity spectrum at 200 μM, B. adolescentis. It counts as cell-based, Bifidobacterium adolescentis. The protocol: as §1
Assay [10] relates to B. longum. Nature of the assay: Activity spectrum at 200 μM, B. longum. It counts as cell-based, Bifidobacterium longum. The protocol: as §1
The subject of assay [11] is E. faecalis. Nature of the assay: Activity spectrum at 200 μM, E. faecalis. Format: cell-based, Enterococcus faecalis. The procedure: as §1
For assay [12], the system named is L. brevis. Nature of the assay: Activity spectrum at 200 μM, L. brevis. Format: cell-based, Lactobacillus brevis. The protocol: as §1
In assay [13] the test system is L. rhamnosus GG. Nature of the assay: Activity spectrum at 200 μM, L. rhamnosus GG. It counts as cell-based, Lactobacillus rhamnosus. The protocol: as §1
For assay [14], the system named is PhoP regulon in S. typhimurium. The note with it: four HTS, PubChem AID #1863, #1981, #2253, #2401; cited from earlier work.

For the compound `CC1CCC(C(C)C)C(OC(=O)Cn2c[n+](CC(=O)OC3CC(C)CCC3C(C)C)c3ccccc32)C1.[Cl-]` (stereo not shown) [SM1, 1,3-bis{2-[(2-isopropyl-5-methylcyclohexyl)oxy]-2-oxoethyl}-1H-3,1-benzimidazol-3-ium chloride], the “growth effect on C. clostridioforme” value in assay [1] is listed as “no growth inhibition effect”. Moreover, in assay [2], the “effect against C. jejuni 81-176” value was “bactericidal effects”. The IC50 in assay [3] (TYPHIMURIUM, HD11, read-out: IC 50% (μm), HD11 cells) was less than 6.25 µM. For the same compound, in assay [3] (S. Typhimurium-infected HD11 cells, 24 hrs treatment), the MBC – broadly, the smallest concentration meeting the test's criterion for killing – worked out at 12.5 µM.

`CCCCCCCCCCCCCCCC[n+]1ccn(CC#N)c1.[Cl-]` [SM3, 1-(cyanomethyl)-3-hexadecyl-1H-imidazol-3-ium chloride]: the “activity on twelve beneficial-commensal gut bacteria” value in assay [4] was “killing all twelve strains tested”. In [5], the “effect against Avian Pathogenic E. coli” value was “lethal”. For the same compound, the “concentration clearing internalized Salmonella” value in assay [6] was found to be 50 µM.

As to `CCCCCCCCCCCCCCCCn1c[n+](C)c2ccccc21.[Br-]` [SM4, 1-hexadecyl-3-methyl-1H-3,1-benzimidazol-3-ium bromide], the “concentration killing biofilm-protected Salmonella” value in [7] is 0.6 ×MBC. Further, the “activity on twelve beneficial-commensal gut bacteria” value in assay [4] is recorded as “killing all twelve strains tested”. In assay [5], the “effect against Avian Pathogenic E. coli” value is “lethal”. Also, the “concentration clearing internalized Salmonella” value in assay [6] stood at 25 µM.

Take `CCOc1cc(/C=N/N=C(N)N)ccc1OCc1ccc(Cl)cc1` [SM5, N″-{4-[(4-chlorobenzyl)oxy]-3-ethoxybenzylidene}carbonohydrazonic diamide]: in assay [7], the “concentration killing biofilm-protected Salmonella” value turned out to be 0.4 ×MBC. The “growth effect on B. thetaiolaomicron” value in [8] was “no effect”. In addition, the “growth effect on B. adolescentis” value in assay [9] is recorded as “no effect”. Moreover, the “growth effect on B. longum” value in assay [10] is recorded as “no effect”. The “growth effect on E. faecalis” value in [11] is reported as “no effect”. Also, the “growth effect on L. brevis” value in assay [12] is on record as “no effect”. Further, the “growth effect on L. rhamnosus GG” value in assay [13] is given as “no effect”. Moreover, the “inhibition of the PhoP regulon in S. typhimurium” value in [14] was “direct or indirect inhibitor”.

The values above are taken from patent US12161630B2, “Methods to control infection using new generation small molecule growth inhibitors” (priority 2017, dated 2024).
